From patent publication US20230416221A1, “DIHYDROISOQUINOLINONE AND ISOINDOLINONE DERIVATIVES AND USES THEREOF” (HEFEI INSTITUTES OF PHYSICAL SCIENCE, CHINESE ACADEMY OF …, priority 2020, published 2023) come the findings set out here.

Usually GI50 stands for the concentration at which growth is held to half of that of the control.

The test system of assay [1] is histiocytic lymphoma U-937. Kind of assay: Growth of cancer cells, Cell Titer-Glo GI50, U937. It counts as cell-based. The following applies: Homo sapiens, read-out: GI50 U937. In general terms: In ATP-based viability assays light output follows the ATP content of the culture.
Assay [2] relates to acute myeloid leukemia cell line OCI-AML-3. Description: Growth of cancer cells, Cell Titer-Glo GI50, OCI-AML-3. As to conditions: Homo sapiens, read-out: GI50 AML3. The assay is classed as cell-based.
Assay [3] has as its system acute myeloid leukemia cell line MOLM13. Kind of assay: Growth of cancer cells, Cell Titer-Glo GI50, MOLM13. The assay is classed as cell-based.
Assay [4] deals with acute myeloid leukemia cell line MOLM14. Description: Growth of cancer cells, Cell Titer-Glo GI50, MOLM14. The assay is classed as cell-based. As to conditions: read-out: GI50 MOLM 14.
Assay [5] relates to human chronic myeloid leukemia cell K562. Description: Growth of cancer cells, Cell Titer-Glo GI50, K562. The assay is classed as cell-based. As to conditions: read-out: GI50 K562.
Assay [6] deals with acute myeloid leukemia cell line MV4-11. Kind of assay: Growth of cancer cells, Cell Titer-Glo GI50, MV4-11. As to conditions: read-out: GI50 MV4-11.
In assay [7] the test system is MOLM13 drug resistant strain MOLM13 BR1. Description: Growth of drug resistant strain MOLM13 BR1, Cell Titer-Glo GI50. The assay is classed as cell-based. As to conditions: 72 hours.
The target of assay [8] is CDK9/CyclinT1 protein (Homo sapiens (Human), UniProt P50750). Description: Enzyme activity assay of CDK9 protein inhibition in vitro, CDK9/CyclinT1.
Assay [9] relates to human ovarian granulosa tumor cell COV434. Kind of assay: Growth of cancer cells, Cell Titer-Glo GI50, COV434. The assay is classed as cell-based. The following applies: Homo sapiens, COV434, 72 h, read-out: GI50 COV434.
The mark [10] stands for this setting: Homo sapiens, MOLM-13, 72 h, read-out: GI50 MOLM 13.
[11] abbreviates: Homo sapiens, MOLM-13, incubated for 72 hours, Cell Titer-Glo, Table 1, read-out: GI50 MOLM 13.
[12] abbreviates: Homo sapiens, MOLM-13, incubated for 72 hours, Cell Titer-Glo, Table 2, read-out: GI50 MOLM13.
The mark [13] stands for this setting: Homo sapiens, MOLM-14, incubated for 72 hours, Cell Titer-Glo.
Where [14] appears, read: Homo sapiens, K562, incubated for 72 hours, Cell Titer-Glo.
The mark [15] stands for this setting: Homo sapiens, MOLM-13, BAY1251152-resistant MOLM13 strain.
[16] abbreviates: U-937, incubated for 72 hours, Cell Titer-Glo.
[17] abbreviates: incubated for 72 hours, Cell Titer-Glo.

Structures are written as SMILES. Like-named read-outs stand apart in the source and are kept apart here.

Chain of CDK9/CyclinT1 protein (P50750 whole entry): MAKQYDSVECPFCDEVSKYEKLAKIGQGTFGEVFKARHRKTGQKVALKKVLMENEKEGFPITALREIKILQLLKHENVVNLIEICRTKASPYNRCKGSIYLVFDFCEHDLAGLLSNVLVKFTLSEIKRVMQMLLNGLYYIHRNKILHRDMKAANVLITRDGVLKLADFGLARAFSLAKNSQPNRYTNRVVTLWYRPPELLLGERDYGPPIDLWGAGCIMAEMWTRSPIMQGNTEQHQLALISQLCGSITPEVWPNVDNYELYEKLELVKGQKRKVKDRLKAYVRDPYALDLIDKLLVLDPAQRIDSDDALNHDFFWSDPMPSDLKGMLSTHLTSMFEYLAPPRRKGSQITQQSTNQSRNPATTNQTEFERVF
Chain of CDK9/CyclinT1 protein (O60563 whole entry partner): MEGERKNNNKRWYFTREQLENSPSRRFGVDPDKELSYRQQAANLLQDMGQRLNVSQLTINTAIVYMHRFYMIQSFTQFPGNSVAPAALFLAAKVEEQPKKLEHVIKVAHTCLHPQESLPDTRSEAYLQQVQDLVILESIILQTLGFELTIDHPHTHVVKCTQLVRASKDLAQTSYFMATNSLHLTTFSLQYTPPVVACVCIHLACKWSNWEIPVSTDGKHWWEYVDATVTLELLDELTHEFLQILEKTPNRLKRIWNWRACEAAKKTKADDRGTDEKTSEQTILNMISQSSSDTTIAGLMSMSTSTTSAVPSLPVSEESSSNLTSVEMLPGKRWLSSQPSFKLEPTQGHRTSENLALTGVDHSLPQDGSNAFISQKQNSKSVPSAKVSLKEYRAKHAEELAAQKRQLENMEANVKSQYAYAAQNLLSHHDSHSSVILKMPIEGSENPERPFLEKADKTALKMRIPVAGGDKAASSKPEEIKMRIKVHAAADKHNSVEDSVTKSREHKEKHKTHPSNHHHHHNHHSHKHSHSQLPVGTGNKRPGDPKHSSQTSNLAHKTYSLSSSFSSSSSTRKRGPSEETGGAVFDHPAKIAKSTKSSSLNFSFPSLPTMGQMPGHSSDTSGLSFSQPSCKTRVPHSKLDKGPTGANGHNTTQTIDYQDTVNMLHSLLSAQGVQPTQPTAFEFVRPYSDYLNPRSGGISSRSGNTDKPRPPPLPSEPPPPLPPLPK

Regarding `CC1(C)CNC(=O)c2ccc(-c3ccnc(Nc4cccc(CS(C)(=O)=O)c4)n3)cc21` [Compound 28, 4,4-dimethyl-6-(2-((3-((methylsulfonyl)methyl)phenyl)amino)pyrimidin-4-yl)-3,4-dihydroisoquinolin-1(2H)-one], the GI50 is 0.002 µM in [1] (U-937, 72 h); 0.002 µM in assay [2] (72 h); 0.001 µM in [3] (setting [10]); 0.002 µM in [4] (Homo sapiens, MOLM-14, 72 h); 0.01 µM in [5] (Homo sapiens, K562, 72 h); 0.002 µM in [6] (Homo sapiens, MV4-11, 72 h).

Turning to `CN1CCN(c2cc(F)cc(Nc3ncc(F)c(-c4ccc5c(c4)C(C)(C)CNC5=O)n3)c2)CC1` [Compound 73, 6-(5-fluoro-2-((3-fluoro-5-(4-methylpiperazin-1-yl)phenyl)amino)pyrimidin-4-yl)-4,4-dimethyl-3,4-dihydroisoquinolin-1(2H)-one], the GI50 is below 0.001 µM in assay [3] (setting [11]); 0.00164 µM in [3] (setting [12]); below 0.001 µM in assay [4] (setting [13]); 0.026 µM in assay [5] (setting [14]); 0.000345 µM in [7] (setting [15]).

For `CN1CCN(c2cc(Nc3ncc(F)c(-c4ccc5c(c4)C(C)(C)CNC5=O)n3)ccc2F)CC1` [Compound 72, 6-(5-fluoro-2-((4-fluoro-3-(4-methylpiperazin-1-yl)phenyl)amino)pyrimidin-4-yl)-4,4-dimethyl-3,4-dihydroisoquinolin-1(2H)-one], the values for the GI50 in assay [3] (setting [11]) and in assay [4] (setting [13]) were below 0.001 µM and 0.0055 µM, respectively. In assay [8], the IC50 amounted to 0.015 µM.

Turning to `CC1(C)CNC(=O)c2ccc(-c3ccnc(NC4CCN(S(C)(=O)=O)CC4)n3)cc21` [Compound 105, 4,4-dimethyl-6-(2-((1-(methylsulfonyl)piperidin-4-yl)amino)pyrimidin-4-yl)-3,4-dihydroisoquinolin-1(2H)-one], the GI50 in [4] (setting [13]) turned out to be 0.043 µM; in [6] (Homo sapiens, MV4-11, 72 h), 0.082 µM. The molecule further had an IC50 in assay [8] of 0.015 µM.

`CN(C)S(=O)(=O)c1cccc(Nc2nccc(-c3ccc4c(c3)C(C)(C)CNC4=O)n2)c1` [Compound 29, 3-((4-(4,4-dimethyl-1-oxo1,2,3,4-tetrahydroisoquinolin-6-yl)pyrimidin-2-yl)amino)-N,N-dimethylbenzenesulfonamide]: the concentration for 50% growth inhibition (GI50) stood at 0.186 µM in [1] (setting [16]); 0.153 µM in [2] (setting [17]); 0.035 µM in assay [3] (setting [11]); 0.059 µM in assay [4] (setting [13]); 0.942 µM in [5] (setting [14]); 0.057 µM in assay [6] (Homo sapiens, MV4-11, 72 h). For the same molecule, in assay [8], the IC50 came out at 0.027 µM.

For the molecule `COCCN[C@H]1CC[C@H](Nc2ncc(Cl)c(-c3ccc4c(c3)C(C)(C)NC4=O)n2)CC1` [Compound 22, 5-(5-chloro-2-(((1r,4r)-4-((2-methoxyethyl)amino)cyclohexyl)amino)pyrimidin-4-yl)-3,3-dimethylisoindoline-1-one], the 50% growth inhibitory concentration (GI50) in [3] (setting [11]) turned out to be 0.028 µM; in assay [4] (setting [13]), 0.041 µM. The IC50 in [8] came to 0.013 µM.

For `CC1(C)CNC(=O)c2ccc(-c3ccnc(Nc4cccc(S(C)(=N)=O)c4)n3)cc21` (stereo not drawn) [Compound 38], the GI50 in [3] (setting [11]) was 0.005 µM; in assay [4] (setting [13]), 0.016 µM; in assay [5] (setting [14]), 0.095 µM; in assay [6] (Homo sapiens, MV4-11, 72 h), 0.013 µM.

Turning to `CC(=O)N[C@@H]1CCC[C@H](C(=O)Nc2cc(-c3ccc4c(c3)C(C)(C)CNC4=O)c(Cl)cn2)C1` [Compound 96, (1S,3R)-3-acetylamino-N-(5-chloro-4-(4,4-dimethyl-1-oxo-1,2,3,4-tetrahydroisoquinolin-6-yl)pyridin-2-yl)cyclohexyl-1-formamide], the GI50 turned out to be 0.008 µM in [3] (incubated for 72 hours, Cell Titer-Glo, Table 1, read-out: GI50 MOLM 13); 0.017 µM in assay [4] (setting [17]); 0.072 µM in [5] (setting [17]); 0.0056 µM in [7] (BAY1251152-resistant MOLM13 strain); 0.009 µM in [6] (setting [17]). Besides, in assay [8] (read-out: CDK9/CyclinT1 Protein activity (IC50)), the IC50 was 0.00052 µM.

With `CN1CCN(c2cc(Nc3ncc(Cl)c(-c4ccc5c(c4)C(C)(C)CNC5=O)n3)ccc2F)CC1` [Compound 75, 6-(5-chloro-2-((4-fluoro-3-(4-methylpiperazin-1-yl)phenyl)amino)pyrimidin-4-yl)-4,4-dimethyl-3,4-dihydroisoquinolin-1(2H)-one], the values for the GI50 in [3] (setting [11]) and in assay [4] (setting [13]) were 0.033 µM and 0.11 µM, respectively.

Regarding `CC1(C)CNC(=O)c2ccc(-c3ccnc(N[C@@H]4CCCN(S(C)(=O)=O)C4)n3)cc21` [Compound 104], the 50% growth inhibitory concentration (GI50) in assay [4] (setting [13]) turned out to be 0.01 µM; in assay [6] (Homo sapiens, MV4-11, 72 h), 0.034 µM. The same molecule showed an IC50 in assay [8] of 0.0009 µM.

Take `COc1ccc(Nc2nccc(-c3ccc4c(c3)C(C)(C)CNC4=O)n2)cc1CS(C)(=O)=O` [Compound 45, 6-(2-((4-methoxy-3-((methylsulfonyl)methyl)phenyl)amino)pyrimidin-4-yl)-4,4-dimethyl-3,4-dihydroisoquinolin-1(2H)-one]: the figures for the GI50 in [3] (setting [11]) and in assay [4] (setting [13]) were 0.03 µM and 0.096 µM, respectively.

`CC(C)N1CCN(c2cc(Nc3ncc(F)c(-c4ccc5c(c4)C(C)(C)CNC5=O)n3)ccc2F)CC1` [Compound 80, 6-(5-fluoro-2-((4-fluoro-3-(4-isopropylpiperazin-1-yl)phenyl)amino)pyrimidin-4-yl)-4,4-dimethyl-3,4-dihydroisoquinolin-1(2H)-one]: the GI50 in assay [3] (setting [11]) was 0.0033 µM; in assay [3] (setting [12]), 0.0116 µM; in [4] (setting [13]), 0.0072 µM; in [5] (setting [14]), 0.015 µM; in assay [7] (setting [15]), 0.0123 µM.

`CC1(C)NC(=O)c2ccc(-c3nc(Nc4ccc(F)c(CS(C)(=O)=O)c4)ncc3Cl)cc21` [Compound 51, 5-(5-chloro-2-((4-fluoro-3-((methylsulfonyl)methyl)phenyl)amino)pyrimidin-4-yl)-3,3-dimethylisoindoline-1-one]: the GI50 in assay [4] (setting [13]) turned out to be 0.015 µM.

For the molecule `CN1CCC(NC(=O)c2cccc(Nc3nccc(-c4ccc5c(c4)C(C)(C)CNC5=O)n3)c2)CC1` [Compound 33, 3-((4-(4,4-dimethyl-1-oxo-1,2,3,4-tetrahydroisoquinolin-6-yl)pyrimidin-2-yl)amino)-N-(1-methylpiperidin-4-yl)benzamide], the GI50 worked out at 0.063 µM in [1] (setting [16]); 0.048 µM in assay [2] (setting [17]); 0.008 µM in [9]; 0.01 µM in [3] (setting [11]); 0.077 µM in assay [5] (setting [14]); 0.006 µM in assay [6] (Homo sapiens, MV4-11, 72 h).

In the case of `CC1(C)CNC(=O)c2ccc(-c3ccnc(Nc4ccc(F)c(CS(C)(=O)=O)c4)n3)cc21` [Compound 36, 6-(2-((4-fluoro-3-((methylsulfonyl)methyl)phenyl)amino)pyrimidin-4-yl)-4,4-dimethyl-3,4-dihydroisoquinolin-1(2H)-one], the GI50 in assay [3] (setting [10]) was below 0.001 µM; in [4] (Homo sapiens, MOLM-14, 72 h), 0.002 µM; in assay [5] (Homo sapiens, K562, 72 h), 0.009 µM; in assay [6] (Homo sapiens, MV4-11, 72 h), 0.003 µM.

For `CC1(C)CNC(=O)c2ccc(-c3nc(Nc4ccc(F)c(C5(S(C)(=O)=O)CC5)c4)ncc3F)cc21` [Compound 63, 6-(5-fluoro-2-((4-fluoro-3-(1-(methylsulfonyl)cyclopropyl)phenyl)amino)pyrimidin-4-yl)-4,4-dimethyl-3,4-dihydroisoquinolin-1(2H)-one], the GI50 in assay [3] (setting [11]) was determined as 0.019 µM; in [4] (setting [13]), 0.044 µM.

In turn, `CC1(C)CNC(=O)c2ccc(-c3ccnc(N[C@H]4CC[C@H](CC(=O)O)CC4)n3)cc21` [Compound 106] yielded an IC50 in assay [8] of 0.0104 µM.
